According to patent US6716828B1, “Compounds, methods and pharmaceutical compositions for treating cellular damage, such as neural or cardiovascular tissue damage” (Guilford Pharmaceuticals, Inc., priority 1999, dated 2004):

Tests used:
PARP = PARP (Homo sapiens, UniProt P09874); settings: read-out: IC50 for inhibiting PARP; reported by Suto et al.; cited from earlier work
male Long-Evans rats = test: Focal cerebral ischemia (right distal MCA cauterization with bilateral temporary CCA occlusion); assay type: in vivo; settings: for damaged volume (infarct volume): mean±SD
Experimental: Focal cerebral ischemia is produced by cauterization of the right distal MCA (middle cerebral artery) with bilateral temporary common carotid artery occlusion in male Long-Evans rats for 90 minutes. All procedures performed on the animals are approved by the University Institutional Animal Care and Use Committee of the University of Pennsylvania. A total of 42 rats (weights: 230-340 g) obtained from Charles River were used in this study. The animals fasted overnight with free access to water prior to the surgical procedure.
Two hours prior to MCA occlusion, varying amounts (control, n=14; 5 mg/kg, n=7; 10 mg/kg, n=7; 20 mg/kg, n=7; and 40 mg/kg, n=7) of the compound, 3,4-dihydro-5-[4-(1-piperidinyl)-butoxy]-1(2H)-isoquinolinone (“DPQ”) were dissolved in dimethyl sulfoxide (DMSO) using a sonicator. A volume of 1.28 ml/kg of the resulting solution was injected intraperiotoneally into fourteen rats.
The rats were then anesthetized with halothane (4% for induction and 0.8%-[…] for the surgical procedure) in a mixture of 70% nitrous oxide and 30% oxygen. The body temperature was monitored by a rectal probe and maintained at 37.5±0.5° C. with a heating blanket regulated by a homethermic blanket control unit (Harvard Apparatus Limited, Kent, U.K.). A catheter (PE-50) was placed into the tail artery, and arterial pressure was continuously monitored and recorded on a Grass polygraph recorder (Model 7D, Grass Instruments, Quincy, Mass.). Samples for blood gas analysis (arterial pH, PaO2 and PaCO2) were also taken from the tail artery catheter and measured with a blood gas analyzer (ABL 30, Radiometer, Copenhagen, Denmark). Arterial blood samples were obtained 30 minutes after MCA occlusion.
The head of the animal was positioned in a stereotaxic frame, and a right parietal incision between the right lateral canthus and the external auditory meatus was made. Using a dental drill constantly cooled with saline, a 3 mm burr hole was prepared over the cortex supplied by the right MCA. 4 mm lateral to the sagittal suture and 5 mm caudal to the coronal suture. The dura mater and a thin inner bone layer were kept, care being taken to position the probe over a tissue area devoid of large blood vessels. The flow probe (tip diameter of 1 mm, fiber separation of 0.25 mm) was lowered to the bottom of the cranial burr hole using a micromanipulator. The probe was held stationary by a probe holder secured to the skull with dental cement. The microvascular blood flow in the right parietal cortex was continuously monitored with a laser Doppler flowmeter (FloLab, Moor, Devon, U.K., and Periflux 4001, Perimed, Stockholm, Sweden).
Focal cerebral ischemia was produced by cauterization of the distal portion of the right MCA with bilateral temporary common caroud artery (CCA) occlusion by the procedure of Chen et al., “A Model of Focal Ischemic Stroke in the Rat: Reproducible Extensive Cortical Infarction”, Stroke 17:738-43 (1986) and/or Liu et al., “Polyethylene Glycol-conjugated Superoxide Dismutase and Catalase Reduce Ischemic Brain Injury”, Am. J. Physiol. 256:H589-93 (1989), both of which are hereby incorporated by reference.
Specifically, bilateral CCA's were isolated, and loops made from polyethylene (PE-10) catheter were carefully passed around the CCA's for later remote occlusion. […]

Sequence of PARP (P09874 whole entry): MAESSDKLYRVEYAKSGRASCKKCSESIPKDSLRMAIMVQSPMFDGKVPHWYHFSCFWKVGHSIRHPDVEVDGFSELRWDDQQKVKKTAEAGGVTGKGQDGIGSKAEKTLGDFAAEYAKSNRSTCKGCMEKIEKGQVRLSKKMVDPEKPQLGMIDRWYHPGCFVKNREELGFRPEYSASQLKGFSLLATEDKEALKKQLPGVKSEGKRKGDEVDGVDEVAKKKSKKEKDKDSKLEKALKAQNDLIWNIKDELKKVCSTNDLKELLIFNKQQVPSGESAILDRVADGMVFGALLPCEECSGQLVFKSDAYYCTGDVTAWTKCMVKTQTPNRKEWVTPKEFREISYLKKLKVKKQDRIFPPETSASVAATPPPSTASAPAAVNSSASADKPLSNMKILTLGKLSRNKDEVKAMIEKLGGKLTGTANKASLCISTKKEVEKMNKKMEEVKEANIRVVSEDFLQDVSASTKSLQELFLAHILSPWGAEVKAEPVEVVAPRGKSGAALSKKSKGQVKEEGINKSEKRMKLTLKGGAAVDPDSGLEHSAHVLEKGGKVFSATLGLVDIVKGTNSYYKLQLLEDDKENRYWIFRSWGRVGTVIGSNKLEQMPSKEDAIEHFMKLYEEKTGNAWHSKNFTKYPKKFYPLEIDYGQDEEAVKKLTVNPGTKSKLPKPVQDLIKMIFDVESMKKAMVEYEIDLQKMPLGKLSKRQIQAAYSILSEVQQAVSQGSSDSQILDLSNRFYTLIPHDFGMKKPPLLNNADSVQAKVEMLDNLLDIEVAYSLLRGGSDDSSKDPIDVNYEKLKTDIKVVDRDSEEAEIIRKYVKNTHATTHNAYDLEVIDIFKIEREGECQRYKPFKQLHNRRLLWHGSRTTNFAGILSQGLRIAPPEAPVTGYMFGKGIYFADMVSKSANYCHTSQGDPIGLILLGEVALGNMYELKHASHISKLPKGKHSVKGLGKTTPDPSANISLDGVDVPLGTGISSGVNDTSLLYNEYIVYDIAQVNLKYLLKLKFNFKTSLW

For O=C1NCCc2c(OCCCCN3CCCCC3)cccc21 [DPQ, 3,4-dihydro-5-[4-(1-piperidinyl)-butoxy]-1(2H)-isoquinolinone], the IC50 (PARP) is listed as 10 nM, the “damaged volume (infarct volume)” value (male Long-Evans rats; 5 mg/kg i.p. 2 h before and 2 h after MCA occlusion, p<0.001 vs control) is listed as 106.7±23.2 mm^3 and the “damaged volume (infarct volume)” value (male Long-Evans rats; 10 mg/kg i.p. 2 h before and 2 h after MCA occlusion, p<0.001 vs control) is listed as 76.4±16.8 mm^3. The “damaged volume (infarct volume)” value (male Long-Evans rats; 20 mg/kg i.p. 2 h before and 2 h after MCA occlusion, p<0.01 vs control) was 110.2±42.0 mm^3, the “damaged volume (infarct volume)” value (male Long-Evans rats; 40 mg/kg i.p. 2 h before and 2 h after MCA occlusion, not significant vs control) was 135.6±44.8 mm^3 and the “infarct volume, overall effect of in vivo administration” value (male Long-Evans rats; focal cerebral ischemia model in the rat) was “substantial reduction in infarct volume”.
